Measurements taken from patent US8563713B2, “Antibodies specific to carbamazepine” (priority 2011, dated 2013).

System: antibody specific to carbamazepine
Test: Interference from other drugs in the carbamazepine ELISA assay
Format: binding, rabbit
Settings: chemical tested at 10.0 μg/ml; procedures of Example 4 (competitive ELISA); tested in duplicate
Procedure: Production of the antibodies of the present disclosure was performed with conventional methods. In brief, the immunogen as prepared in Example 2 was diluted to 1.0 mg/ml in phosphate buffered saline (PBS). 1.0 ml of the immunogen solution was injected into rabbits with complete Freunds adjuvant. After 2-3 weeks, the animal was injected with 1.0 ml of the same immunogen solution with incomplete Freunds adjuvant. The same injection was repeated every other week until acceptable titer was obtained.
The Carbamazepine ELISA was developed with the antibody generated from Example 3. This assay is a competitive micro-immunoassay for determination of carbamazepine in a fluid sample. Carbamazepine in the fluid sample and carbamazepine derivative linked with the enzyme (HRP)-conjugate compete for the finite sites of the antibody coated on the solid surface of the microwell. If little or no carbamazepine is present in the fluid sample, more enzyme labeled carbamazepine derivative will bind to the antibody on the solid surface. Conversely, if a large or a significant amount of carbamazepine is present in the fluid sample, less enzyme labeled carbamazepine derivative will bind to the antibody, producing less color signal. The absorbance produced is inversely proportional to the amount of carbamazepine in the fluid sample.
Interference from other drugs was tested using 30 frequently used chemicals and medicines, at concentrations of 10.0 μg/ml.
The samples were tested in duplicate, following the procedures used in Example 4. All 30 samples produced a negative test result. Thus, the immunoassay of the present disclosure is specific to carbamazepine.

Molecule	Equivalent Carbamazepine Conc.
CN[C@@H](C)[C@H](O)c1ccccc1 [(L)-Ephedrine]	<0.1 µg/mL
CN1C(=O)CC[C@H]1c1cccnc1 [(−)-Cotinine]	<0.1 µg/mL
CC(=O)Oc1ccccc1C(=O)O [Acetylsalicylic Acid]	<0.1 µg/mL
CCC1(CCC(C)C)C(=O)NC(=O)NC1=O [Amobarbital]	<0.1 µg/mL
CC1(C)S[C@@H]2[C@H](NC(=O)[C@H](N)c3ccccc3)C(=O)N2[C@H]1C(=O)O [Ampicillin]	<0.1 µg/mL
Cn1c(=O)c2c(ncn2C)n(C)c1=O [Caffeine]	<0.1 µg/mL
CN(C)CCCN1c2ccccc2Sc2ccc(Cl)cc21 [Chlorpromazine]	<0.1 µg/mL
O=C(O)C1N=C(c2ccccc2)c2cc(Cl)ccc2NC1=O (centres unmarked) [Clorazepate]	<0.1 µg/mL
CN1C(=O)CN=C(c2ccccc2)c2cc(Cl)ccc21 [Diazepam]	<0.1 µg/mL
COC(=O)[C@@H]1[C@H]2CC[C@@H](C[C@@H]1O)N2C [Ecgonine Methyl Ester]	<0.1 µg/mL
CC(C(=O)O)c1cccc(Oc2ccccc2)c1 (centres unmarked) [Fenoprofen]	<0.1 µg/mL
Cc1ccc(C)c(OCCCC(C)(C)C(=O)O)c1 [Gemfibrozil]	<0.1 µg/mL
O=C(O)c1cc(O)ccc1O [Gentisic Acid]	<0.1 µg/mL
COc1ccc2c3c1O[C@H]1C(=O)CC[C@H]4[C@@H](C2)N(C)CC[C@]314 [Hydrocodone]	<0.1 µg/mL
CC(C)Cc1ccc(C(C)C(=O)O)cc1 (centres unmarked) [Ibuprofen]	<0.1 µg/mL
CN(C)CCCN1c2ccccc2CCc2ccccc21 [Imipramine]	<0.1 µg/mL
CCN(CC)CC(=O)Nc1c(C)cccc1C [Lidocaine]	<0.1 µg/mL
COc1ccc2cc([C@H](C)C(=O)O)ccc2c1 [Naproxen]	<0.1 µg/mL
NC(=O)c1cccnc1 [Niacinamide]	<0.1 µg/mL
CNC[C@H](O)c1cccc(O)c1 [Phenylephrine]	<0.1 µg/mL
CC(N)C(O)c1ccccc1 (centres unmarked) [Phenylpropanolamine]	<0.1 µg/mL
CCN(CC)CCNC(=O)c1ccc(N)cc1 [Procainamide]	<0.1 µg/mL
CCN(CC)CCOC(=O)c1ccc(N)cc1 [Procaine]	<0.1 µg/mL
C=C[C@H]1C[N@@]2CC[C@H]1C[C@@H]2[C@@H](O)c1ccnc2ccc(OC)cc12 [Quinidine]	<0.1 µg/mL
Cc1cc(CC(=O)O)n(C)c1C(=O)c1ccc(Cl)cc1 [Zomepirac]	<0.1 µg/mL
NCCc1ccccc1 [beta-Phenylethylamine]	<0.1 µg/mL
CN[C@@H](C)Cc1ccccc1 [d-Methamphetamine]	<0.1 µg/mL
Ecgonine	<0.1 µg/mL
Penicillin	<0.1 µg/mL
